Measurements: paper PMC5670154, “Anti-tumor and Anti-angiogenic Ergosterols from Ganoderma lucidum” (Frontiers in Chemistry, 2017)
Like-named read-outs stand apart in the source and are kept apart here.

Tests used:
[1] = test system: Human breast carcinoma cells MDA-MB-231; assay: MTT anti-proliferative assay, MDA-MB-231; format: cell-based; conditions: mean ± SD
Experimental: (§1) Human breast carcinoma cells MDA-MB-231, human hepatocellular carcinoma cells HepG2, and human lung carcinoma cells A549, were purchased from ATCC, or were gifted by Professor Burton B. Yang from University of Toronto, Canada. The anti-proliferative effect of total extract (GL), fractions (GL1–GL4), and compounds 1–14 on tumor cell lines was evaluated by MTT assay (Franchi et al., [2012]). Total extract (GL) and fractions (GL1–GL4) were evaluated for their anti-proliferative effect on three types of carcinoma cells (MDA-MB-231, HepG2, and A549). Compounds 1–14 were chosen to evaluate for their anti-proliferative effect against MDA-MB-231 and HepG2 cells. Hundred microliters of cells suspension (5 × 10^4 cells/mL) was seeded into wells of a 96-well plate. After being incubated for 4 h, different concentrations of fractions/compounds were added onto the cells and incubated. After 48 h, 150 μL of 3-[4,5-dimethylthiazol-2-yl]-2,5-diphenyl tetrazolium bromide (MTT) solution (Sigma) was added to each well, and cells were kept being incubated for 4 h. After removing the MTT/medium, DMSO (100 μL) of was added to each well and was agitated at 60 rpm for 5 min. The optical density of the assay 96-well plate was read (λ = 540 nm) on a microplate reader.
(§2) IC50-values were calculated and analyzed using SPSS with three replications, each carried out in triplicate. Data were expressed as mean ± SD and analyzed by one-way ANOVA followed by two-tailed Student's t-test. A difference was considered significant at the P < 0.05 or P < 0.01 level.

[2] = test system: mouse embryonic fibroblasts (NIH/3T3); assay: Cytotoxicity on normal cells NIH/3T3; format: cell-based
Experimental: Anti-proliferative activity evaluation against two types of human cancer cells (MDA-MB-231 and HepG2), HUVECs and mouse embryonic fibroblasts (NIH/3T3, used as normal cells) were then carried out.

[3] = test system: HUVECs; assay: Anti-angiogenesis activity, MTT assay on HUVECs; format: cell-based, human; conditions: for EC50: MTT, 48 h, mean ± SD; for selective inhibition, tumor cells versus HUVECs: comparison of MDA-MB-231/HepG2 and HUVEC values
Experimental: HUVECs (KeyGEN BioTECH Co., Ltd, Jiangsu, China) were cultured in ECM (endothelial cell medium) with 5% (v/v) FBS, 1% (v/v) ECGS, and 1% penicillin-streptomycin (w/v) at 37°C in a cell incubator. The MTT assay was employed to assess the anti-angiogenic effect of the isolated compounds against HUVECs as described previously with mild modification (Liang et al., [2015]; Nguyen et al., [2015]). Briefly, HUVECs were seeded into a 96-well plate and incubated. Different concentrations of compounds 1–14 were added onto the cells after 4 h, and continued to be co-incubated for 48 h. Next, the cells were co-incubated with MTT (Sigma, St. Louis, MO, USA) to a final concentration of 0.05% for another 4 h. Then, replacing the MTT solution with […] DMSO, and kept the plates being shaken for 3 min. The optical density of each well was measured on a microplate reader at λ = 570 nm.
as §2

[4] = test system: human hepatocellular carcinoma cells HepG2; assay: MTT anti-proliferative assay, HepG2; format: cell-based; conditions: for Experimental pIC50: HepG2
Experimental: as §1, §2

[5] = Mus musculus, NIH3T3, mean ± SD
[6] = Homo sapiens, HepG2, 48 h, MTT, 48 h, mean ± SD, read-out: IC50 HepG2
[7] = Homo sapiens, HepG2, HepG2, converted from observed IC50s (μM), read-out: Experimental pIC50 (converted)
[8] = MTT, 48 h, mean ± SD, read-out: IC50 HepG2
[9] = converted from observed IC50s (μM)

| Compound | IC50 ([1]; Homo sapiens, MDA-MB-231, 48 h) | EC50 [2, 5] | EC50 ([3]; Homo sapiens, HUVEC) | IC50 [4, 6] | IC50 [4, 7] | IC50 ([1]; 48 h) | selective inhibition, tumor cells versus HUVECs [3] | IC50 [4, 8] | increase of activity compared with compound 2 ([4]; HepG2 IC50) | EC50 ([2]; mean ± SD) | EC50 ([3]; read-out: EC50 HUVEC) | Experimental pIC50 [4, 9] | decline of activity in comparison with compound 2 ([4]; HepG2 IC50) |
| --- | --- | --- | --- | --- | --- | --- | --- | --- | --- | --- | --- | --- | --- |
| CO[C@@H]1C=C2[C@@H]3CC[C@H]([C@H](C)/C=C/[C@H](C)C(C)C)[C@@]3(C)CC[C@@H]2[C@@]2(C)CC[C@H](O)[C@H]3O[C@@]312 [Compound 1, (22E)-4α, 5α-epoxy-6β-methoxyergosta-7, 22-diene-3β-ol] | 176 ± 5.1 µM | 422 ± 9.3 µM | 144 ± 6.1 µM | 138 ± 8.3 µM | 138 µM | – | – | – | – | – | – | – | – |
| CC(C)[C@@H](C)/C=C/[C@@H](C)[C@H]1CC[C@H]2C3=C[C@@H](O)[C@@]4(O)C[C@@H](O)CC[C@]4(C)C3=CC[C@]12C [Compound 2, (3β, 5α, 6β, 22E)-ergosta-7, 9 (11), 22-triene-3,5,6-triol] | < 100 µM | 303 ± 11.9 µM | 142 ± 3.6 µM | < 100 µM | 62.5 µM | 56.3 ± 1.5 µM | significant selective inhibition against cancer cells | 62.5 ± 1.3 µM | – | – | – | – | – |
| CC(C)[C@@H](C)/C=C/[C@@H](C)[C@H]1CC[C@H]2C3=C[C@@H](O)[C@@]4(O)C[C@@H](O)CC[C@]4(C)[C@H]3CC[C@]12C [Compound 4, (3β, 5α, 6β, 22E)-ergosta-7, 22-diene-3,5,6-triol] | 149 ± 8.7 µM | > 500 µM | 345 ± 13.7 µM | 175 ± 15.9 µM | 175 µM | – | – | – | – | – | – | – | – |
| CC(C)[C@@H](C)/C=C/[C@@H](C)[C@H]1CC[C@H]2C3=C[C@H](O)[C@@]4(O)C[C@@H](O)CC[C@]4(C)[C@H]3CC[C@]12C [Compound 5, (3β, 5α, 6α, 22E)-ergosta-7, 22-diene-3,5,6-triol] | 114 ± 9.9 µM | > 500 µM | 206 ± 12.2 µM | 197 ± 20.1 µM | 197 µM | – | – | – | – | – | – | – | – |
| CC(C)[C@@H](C)/C=C/[C@@H](C)[C@H]1CC[C@H]2C3=C[C@H](O)[C@@]4(O)C[C@@H](O)CC[C@]4(C)[C@@]3(O)CC[C@]12C [Compound 6, (3β, 5α, 6α, 9α, 22E)-ergosta-7, 22-diene-3,5,6,9-tetrol] | 224 ± 10 µM | > 500 µM | 384 ± 10.9 µM | 185 ± 9.5 µM | 185 µM | – | – | – | – | – | – | – | – |
| CC(C)[C@@H](C)/C=C/[C@@H](C)[C@H]1CC[C@H]2C3=C(CC[C@]12C)[C@@]1(C)CC[C@H](O)C[C@@]12O[C@H]2[C@H]3O [Compound 9, (3β, 5α, 6α, 7α, 22E)-5,6-epoxy-ergosta-8, 22-diene-3,7-diol] | 20.3 ± 2.2 µM | 183 ± 10.3 µM | 27.9 ± 1.7 µM | 22.1 ± 0.9 µM | 22.1 µM | – | – | – | approximately 3 folds | – | – | – | – |
| CC(C)[C@@H](C)/C=C/[C@@H](C)[C@H]1CCC2=C3[C@H](O)[C@@H]4O[C@@]45C[C@@H](O)CC[C@]5(C)[C@H]3CC[C@@]21C [Compound 10, (3β, 5α, 6α, 7α, 22E)-5,6-epoxy-ergosta-8 (14), 22-diene-3,7-diol] | 46.7 ± 5.4 µM | 194 ± 9.6 µM | 48.7 ± 2.9 µM | 50.6 ± 5.3 µM | 50.6 µM | – | – | – | – | – | – | – | – |
| CC(C)[C@@H](C)/C=C/[C@@H](C)[C@H]1CC[C@@H]2[C@]1(C)CC[C@H]1[C@]23C=C[C@]2(C[C@@H](O)CC[C@]12C)OO3 [Compound 11, (3β, 5α, 8α, 22E)-5,8-epidioxy-ergosta-6, 22-dien-3-ol] | 44.6 ± 1.9 µM | 197 ± 11.3 µM | 29.1 ± 3.2 µM | 34.8 ± 2.6 µM | 34.8 µM | – | – | – | – | – | – | – | – |
| CC(C)[C@@H](C)/C=C/[C@@H](C)[C@H]1CC[C@H]2C3=CC=C4C[C@@H](O)CC[C@]4(C)[C@H]3CC[C@]12C [Compound 12, (3β, 22E)-ergosta-5,7, 22-trien-3-ol] | 69.7 ± 5.8 µM | 261 ± 12 µM | 72.4 ± 5.6 µM | 75.6 ± 4.7 µM | – | – | – | – | – | – | – | – | – |
| CC(C)[C@@H](C)/C=C/[C@@H](C)[C@H]1CC[C@@H]2[C@]1(C)CC=C1[C@]23C=C[C@]2(C[C@@H](O)CC[C@]12C)OO3 [Compound 13, (3β, 5α, 8α, 22E)-5,8-epidioxy-ergosta-6, 9 (11), 22-trien-3-ol] | 32.1 ± 3 µM | 293 ± 17.2 µM | 51.6 ± 2.8 µM | 44.5 ± 1.3 µM | 44.5 µM | – | – | – | – | – | – | – | – |
| CC(C)[C@@H](C)/C=C/[C@@H](C)[C@H]1CC[C@@]2(O)C3=C(CC[C@]12C)[C@@]1(C)CC[C@H](O)C[C@@]12O[C@H]2C3=O [Compound 14, (3β, 5α, 6α, 14α, 22E)-3, 14-dihydroxy-5,6-epoxy-ergosta-8, 22-dien-7-one] | 189 ± 8.1 µM | > 500 µM | 321 ± 18.9 µM | 201 ± 6.4 µM | – | – | – | – | – | – | – | – | – |
| O=c1c(O)c(-c2ccc(O)cc2)oc2cc(O)cc(O)c12 [kaempferol, reference compound] | 56.6 ± 3.1 µM | 356 ± 15.9 µM | 35.5 ± 4.1 µM | 45.4 ± 3.4 µM | 45.4 µM | – | – | – | – | – | – | – | – |
| (3β, 5α, 6β, 9α, 14α, 22E)-ergosta-7, 22-diene-3, 5, 6, 9, 14-pentol [Compound 8] | – | – | – | – | – | 216 ± 14.3 µM | – | 286 ± 18.9 µM | – | > 500 µM | 357 ± 19.5 µM | 3.543 | approximately 4.6 folds |
| (3β, 5α, 6β, 9α, 22E)-ergosta-7, 22-diene-3, 5, 6, 9-tetrol [Compound 3] | – | – | – | – | – | 148 ± 5.8 µM | selective inhibition against HUVECs | 130 ± 3.4 µM | – | 365 ± 15.7 µM | 84 ± 6.7 µM | 3.887 | – |
| (3β, 5α, 6β, 14α, 22E)-ergosta-7, 9 (11), 22-triene-3, 5, 6, 14-tetrol [Compound 7] | – | – | – | – | – | 169 ± 11.1 µM | – | 156 ± 8.9 µM | – | > 500 µM | 188 ± 15.3 µM | 3.806 | – |
